From patent US8461328B2, “Tricyclic heterocyclic compounds, compositions and methods of use thereof” (Genentech, Inc., priority 2010, dated 2013)
Like-named read-outs stand apart in the source and are kept apart here.

What was measured:
Assay type in all cases: biochemical
TYK2 = biological target: T1, TYK2 (Homo sapiens, UniProt P29597); experiment: TYK2 inhibition (Table 4)
T1 construct: made in house; host or cells: SF9 insect cells (baculovirus)
T1 sequence (P29597 873-1187): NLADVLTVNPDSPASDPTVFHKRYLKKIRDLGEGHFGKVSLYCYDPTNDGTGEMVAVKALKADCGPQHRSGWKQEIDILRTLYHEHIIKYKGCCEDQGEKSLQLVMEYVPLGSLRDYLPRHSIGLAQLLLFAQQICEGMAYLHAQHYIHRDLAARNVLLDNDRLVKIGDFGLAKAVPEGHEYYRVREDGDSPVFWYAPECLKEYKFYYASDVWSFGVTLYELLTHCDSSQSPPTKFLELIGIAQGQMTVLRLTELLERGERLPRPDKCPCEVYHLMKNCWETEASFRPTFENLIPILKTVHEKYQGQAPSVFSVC

JAK3 = biological target: T2, JAK3 (Homo sapiens, UniProt P52333); experiment: JAK3 inhibition (Table 4); conditions: read-out: JAK3 Ki
T2 construct: made in house; host or cells: SF9 insect cells (baculovirus)

JAK2 = biological target: T3, JAK2 (Homo sapiens, UniProt O60674); experiment: JAK2 inhibition (Table 4)
T3 construct: made in house; host or cells: SF9 insect cells (baculovirus)
T3 sequence (O60674 812-1132): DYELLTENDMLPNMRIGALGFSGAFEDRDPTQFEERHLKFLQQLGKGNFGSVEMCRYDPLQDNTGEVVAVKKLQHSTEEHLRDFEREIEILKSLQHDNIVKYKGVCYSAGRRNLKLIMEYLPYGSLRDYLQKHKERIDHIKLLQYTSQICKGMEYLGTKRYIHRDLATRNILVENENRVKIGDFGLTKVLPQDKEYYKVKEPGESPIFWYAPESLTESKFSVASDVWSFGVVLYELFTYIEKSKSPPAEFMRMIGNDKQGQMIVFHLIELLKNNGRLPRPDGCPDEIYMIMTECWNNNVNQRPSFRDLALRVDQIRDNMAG

T2 sequence (P52333 783-1124): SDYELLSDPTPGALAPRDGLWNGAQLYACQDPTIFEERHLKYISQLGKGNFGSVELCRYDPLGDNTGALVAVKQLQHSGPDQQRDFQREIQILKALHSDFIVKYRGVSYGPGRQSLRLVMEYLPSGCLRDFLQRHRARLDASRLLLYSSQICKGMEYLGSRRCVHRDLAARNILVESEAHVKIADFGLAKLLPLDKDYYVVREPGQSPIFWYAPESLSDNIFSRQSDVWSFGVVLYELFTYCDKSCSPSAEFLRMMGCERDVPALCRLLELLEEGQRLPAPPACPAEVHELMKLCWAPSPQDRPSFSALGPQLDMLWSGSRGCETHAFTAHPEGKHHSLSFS

Row | Structure (SMILES) | Ki (TYK2) [nM] | Ki (JAK3) [nM] | Ki (JAK2; read-out: JAK2 Ki) [nM] | Ki (JAK2; JAK2 Ki) [nM]
1 | Cn1ccnc1CCc1nc2cnc3[nH]ccc3c2n1C1CCN(CCC#N)CC1 [Example 411, 3-(4-{2-[2-(1-Methyl-1H-imidazol-2-yl)-ethyl]-6H-1,3,5,6-tetraaza-as-indacen-1-yl}-piperidin-1-yl)-propionitrile] | 422 | 154 | 64.4 | –
2 | CCS(=O)(=O)NCCc1nc2cnc3[nH]ccc3c2n1C1CCCCC1 [Example 512, Ethanesulfonic acid [2-(1-cyclohexyl-1,6-dihydro-1,3,5,6-tetraaza-as-indacen-2-yl)-ethyl]-amide] | 22 | 61.7 | 28.3 | –
3 | CS(=O)(=O)NCCc1nc2cnc3[nH]ccc3c2n1C1CCCCC1 [Example 514, N-[2-(1-Cyclohexyl-1,6-dihydro-1,3,5,6-tetraaza-as-indacen-2-yl)-ethyl]-methanesulfonamide] | 15.8 | 28.2 | 24.3 | –
4 | C[C@@H](O)c1nc2cnc3[nH]ccc3c2n1C1CCCCC1 [Example 671, (R)-1-(1-Cyclohexyl-1,6-dihydro-1,2,3,5,6-tetraaza-as-indacen-2-yl)-ethanol] | 2.47 | 22.4 | 18.1 | –
5 | C[C@@H](O)c1nc2cnc3[nH]ccc3c2n1C1CCCCC1 [Example 672, (R)-1-(1-Cyclohexyl-1,6-dihydro-1,2,3,5,6-tetraaza-as-indacen-2-yl)-ethanol-d11] | 3.01 | 17.2 | 19.8 | –
6 | CS(=O)(=O)NCc1nc2cnc3[nH]ccc3c2n1C1CCN(CC(F)(F)F)CC1 [Example 692, N-{1-[1-(2,2,2-Trifluoro-ethyl)-piperidin-4-yl]-1,6-dihydro-1,2,3,5,6-tetraaza-as-indacen-2-ylmethyl}-methanesulfonamide] | 118 | 68.4 | 46.6 | –
7 | CC(C)(CF)N1CCC(n2c(CNS(C)(=O)=O)nc3cnc4[nH]ccc4c32)CC1 [Example 693, N-{1-[1-(2-Fluoro-1,1-dimethyl-ethyl)-piperidin-4-yl]-1,6-dihydro-1,2,3,5,6-tetraaza-as-indacen-2-ylmethyl}-methanesulfonamide] | 332 | 303 | 72.1 | –
8 | CC1(n2cnc3cnc4[nH]ccc4c32)CCN(CC(F)(F)F)CC1 [Example 752, 1-[4-Methyl-1-(2,2,2-trifluoro-ethyl)-piperidin-4-yl]-1,6-dihydro-1,3,5,6-tetraaza-as-indacene] | 264 | 240 | 97.2 | –
9 | CS(=O)(=O)NCc1nc2cnc3[nH]ccc3c2n1[C@H]1CCCOC1 [Example 855, (S)—N-[1-(Tetrahydro-pyran-3-yl)-1,6-dihydro-1,3,5,6-tetraaza-as-indacen-2-ylmethyl]-methanesulfonamide] | 112 | 493 | 117 | –
10 | CS(=O)(=O)NCc1nc2cnc3[nH]ccc3c2n1[C@@H]1CCCOC1 [Example 866, (R)—N-[1-(Tetrahydro-pyran-3-yl)-1,6-dihydro-1,3,5,6-tetraaza-as-indacen-2-ylmethyl]-methanesulfonamide] | 1060 | 1110 | 604 | –
11 | CS(=O)(=O)NCc1nc2cnc3[nH]ccc3c2n1C1CCCC1 [Example 874, N-(1-Cyclopentyl-1,6-dihydro-1,3,5,6-tetraaza-as-indacen-2-ylmethyl)-methanesulfonamide] | 114 | 242 | 162 | –
12 | CS(=O)(=O)NCc1nc2cnc3[nH]ccc3c2n1C1CC2CCC1C2 (stereo not drawn) [Example 894, N-(1-Bicyclo[2.2.1]hept-2-yl-1,6-dihydro-1,3,5,6-tetraaza-as-indacen-2-ylmethyl)-methanesulfonamide] | 6.46 | 37.4 | – | 6.18
13 | CS(=O)(=O)NCc1nc2cnc3[nH]ccc3c2n1C1CCN(CCF)CC1 [Example 913, N-{1-[1-(2-Fluoro-ethyl)-piperidin-4-yl]-1,6-dihydro-1,3,5,6-tetraaza-as-indacen-2-ylmethyl}-methanesulfonamide] | 116 | 61.4 | 54.7 | –
14 | CS(=O)(=O)NCc1nc2cnc3[nH]ccc3c2n1C1CCN(CC(F)F)CC1 [Example 914, N-{1-[1-(2,2-Difluoro-ethyl)-piperidin-4-yl]-1,6-dihydro-1,3,5,6-tetraaza-as-indacen-2-ylmethyl}-methanesulfonamide] | 40.3 | 60.6 | 35.4 | –
15 | CC1CCCCC1n1c(CNS(C)(=O)=O)nc2cnc3[nH]ccc3c21 (stereo not drawn) [Example 917, N-[1-(2-Methyl-cyclohyl)-1,6-dihydro-1,3,5,6-tetraaza-as-indacen-2-ylmethyl]-methanesulfonamide] | 112 | 65 | 73.6 | –

The next lines start with results.

Row | Ki (TYK2) [nM] | Ki (JAK3) [nM] | Ki (JAK2; read-out: JAK2 Ki) [nM] | Structure (SMILES) | Ki (JAK2; JAK2 Ki) [nM]
16 | 31.1 | 71.4 | 7.95 | CC1(n2cnc3cnc4[nH]ccc4c32)CCN(S(C)(=O)=O)CC1 [Example 332, 1-(1-Methanesulfonyl-4-methyl-piperidin-4-yl)-1,6-dihydro-1,3,5,6-tetraaza-as-indacene] | –
17 | 101 | 197 | 21.1 | CC(C)C(=O)N[C@H]1CC[C@H](n2cnc3cnc4[nH]ccc4c32)CC1 [Example 571, trans N-[4-(6H-1,3,5,6-Tetraaza-as-indacen-1-yl)-cyclohexyl]-isobutyramide] | –
18 | 125 | 232 | 54.6 | c1cc2c(ncc3ncn([C@H]4CC[C@H](NCC5CC5)CC4)c32)[nH]1 [Example 574, trans Cyclopropylmethyl-[4-(6H-1,3,5,6-tetraaza-as-indacen-1-yl)-cyclohexyl]-amine] | –
19 | 76.6 | 334 | 22.7 | c1cc2c(ncc3ncn([C@H]4CC[C@H](N5CCOCC5)CC4)c32)[nH]1 [Example 594, Trans 1-(4-Morpholin-4-yl-cyclohexyl)-1,6-dihydro-1,2,3,5,6-tetraaza-as-indacene] | –
20 | 17.4 | 67.4 | 5.51 | N#C[C@@H]1CCN([C@H]2CC[C@H](n3cnc4cnc5[nH]ccc5c43)CC2)C1 [Example 596, Trans (R)-1-[4-(6H-1,2,3,5,6-tetraaza-as-indacen-1-yl)-cyclohexyl]-pyrrolidine-3-carbonitrile] | –
21 | 13.7 | 36.8 | 3.5 | Cc1nc2cnc3[nH]ccc3c2n1[C@H]1CC[C@H](C(C)(C)O)CC1 [Example 632, 2-[4-(2-Methyl-6H-1,2,3,5,6-tetraaza-as-indacen-1-yl)-cyclohexyl]-propan-2-ol] | –
22 | 70.7 | 150 | 77.7 | COC[C@H]1CC[C@H](n2c(CNS(C)(=O)=O)nc3cnc4[nH]ccc4c32)CC1 [Example 638, Trans N-[1-(4-methoxymethyl-cyclohexyl)-1,6-dihydro-1,2,3,5,6-tetraaza-as-indacen-2-ylmethyl]-methanesulfonamide] | –
23 | 843 | 910 | 238 | c1cc2c(ncc3ncn(C4CCC(N5CCOCC5)CC4)c32)[nH]1 (stereo not drawn) [Example 775, 1-(4-Morpholin-4-yl-cyclohexyl)-1,6-dihydro-1,3,5,6-tetraaza-as-indacene] | –
24 | 30.1 | 60 | 93.9 | CC(=O)NCc1nc2cnc3[nH]ccc3c2n1C1CCCCC1 [Example 918, N-(1-Cyclohyl-1,6-dihydro-1,3,5,6-tetraaza-as-indacen-2-ylmethyl)-acetamide] | –
